# Test results from patent US10731216B2, “Methods and compositions for biomarkers of depression and pharmacoresponse” (priority 2014, dated 2020).
# “Also recorded” adds a separate entry of the source. Read-outs that look alike come from different tables or passages of the source.
# Columns and labels:
# [1] = tested on: C57Bl/6 mice; assay: Forced swim test (FST), depression-like behavior; type: in vivo, mouse; conditions: for immobility time in FST after FLX treatment: 12 mo, FLX 80 mg/L in drinking water for 21 days
# Experimental: […]; Sigma-Aldrich, Sweden) from gestational day (GD) 14 until delivery. The delivery day was recorded as postnatal day (PND) 0. The litters were culled to 4 pups/litter at PND3. The pups were weighed at PND3, 7, 14, and 21. At weaning (PND21), the mice were implanted subcutaneously with sterile radio-frequency identification (RFID) tags (Trovan Unique 100A, Trovan Ltd., UK) under brief isoflurane anesthesia. The transponders allowed unambiguous identification of animals and were also used for monitoring the activity in homecage environment. After implantation, the pups were redistributed to new cages so that each cage would house a maximum of 5 mice originating from different litters, and the distribution was maintained throughout the study. The mice were kept in an animal facility under 12 h:12 h light-dark (LD) cycle (light intensity 50 lx; light on at 6 a.m.) at constant temperature (22±1° C.) and humidity (50%±5%). The circadian zeitgeber (“time-giver”) time (ZT) 0 corresponds to the subjective sunrise, i.e., the onset of the light phase.
# Adult male mice aged 7 weeks, 3 mo, or 12 mo were tested for depression-like behavior in the forced swim tests (FST). Briefly, the animals were individually placed in glass cylinders (24 cm height, 12 cm diameter) filled with water (23.5° C.) to a depth of 16 cm. The animals were exposed to a 15 min pretest followed by a 6 min test 24 h later. Test sessions were videotaped and analysed offline by one investigator who was blind to the treatment and exposure conditions. Immobility was defined as passive floating for at least 2 s. After documenting depression-like behavior at the age of 12 mo, the animals were treated with fluoxetine (FLX; a selective serotonin re-uptake inhibitor antidepressant) dissolved in drinking water (80 mg/L) for 21 days before repeating the test. In addition to FST, depression-like behavior was tested in a tail-suspension test (TST), as described below.
# [2] = tested on: C57Bl/6 mice; assay: Tail-suspension test (TST); type: in vivo, mouse; conditions: prenatal DEX exposure; mice aged 12 mo
# Experimental: The delivery day was recorded as postnatal day (PND) 0. The litters were culled to 4 pups/litter at PND3. The pups were weighed at PND3, 7, 14, and 21. At weaning (PND21), the mice were implanted subcutaneously with sterile radio-frequency identification (RFID) tags (Trovan Unique 100A, Trovan Ltd., UK) under brief isoflurane anesthesia. The transponders allowed unambiguous identification of animals and were also used for monitoring the activity in homecage environment. After implantation, the pups were redistributed to new cages so that each cage would house a maximum of 5 mice originating from different litters, and the distribution was maintained throughout the study. The mice were kept in an animal facility under 12 h:12 h light-dark (LD) cycle (light intensity 50 lx; light on at 6 a.m.) at constant temperature (22±1° C.) and humidity (50%±5%). The circadian zeitgeber (“time-giver”) time (ZT) 0 corresponds to the subjective sunrise, i.e., the onset of the light phase.
# For TST, the mice were allowed to acclimatize in the testing room for at least 30 min before the experiment. The mice were suspended by the tail 15 cm above the table (using adhesive tape placed approx. 2 cm from the base of the tail). Soft padding was provided in order to prevent injuries in case the animal escaped or fell down because of tape failure. After 6 min, the animal were released and placed in the homecage. […]
# [3] = Corticosterone metabolites in feces; type: in vivo, mouse; conditions: prenatal DEX exposure, 12 mo
# Experimental: The circadian pattern of GC secretion at 12 mo was investigated using a minimally invasive approach. To this end, spontaneous fecal boli were collected between ZT1-2 and ZT12-14 (i.e., immediately after the transition between the light and dark phases of the LD cycle). The feces were collected in sterile Eppendorf tubes and stored at −80° C. until further processing. Samples from each mouse were collected on two occasions (7 day interval between samplings) and the measurements for each mouse were averaged before analysing the differences across the LD cycle. The concentration of corticosterone metabolites in dry fecal extracts was measured by enzyme immunoassay according to manufacturer's instructions (DetectX™, Arbor Assays, Ann Arbor, […]., USA).
# [4] = tested on: Bmal1; assay: Bmal1 expression in primary fibroblast cultures from control and DEX-exposed mice (qPCR); type: cell-based, mouse; conditions: fibroblasts from prenatally DEX-exposed mice aged 6 mo; synchronised with 1 μM DEX
# Experimental: (§1) Tissue samples (˜0.25 cm^2) were harvested from the ear of adult (6 mo) control and DEX-exposed mice under terminal anesthesia. The tissue was rinsed in Hank's Balanced Salt Solution (HBSS) (Life Technologies Europe BV, Stockholm, Sweden), then minced with sterile razor blade into Collagenase (Type XI-S) (Sigma-Aldrich, Sweden) (30 min at 37° C.). After digestion, 3 ml of DMEM Medium (Life Technologies) supplemented with 10% Fetal Bovine Serum and 1% Penicillin/Streptomycin (Life Technologies) was added to a 6 cm plate and the samples were incubated at 37° C. for at least 6 days. After passaging (0.05% Trypsin-EDTA; Invitrogen), the cells were plated in 12 multi-well plates in MEF medium (DMEM Medium+10% FBS+1% pen/strep) at a density of at least 50 k/cm^2. […] The cells were then collected between 6 and 36 h after synchronisation. The relative expression of Bmal1 was assessed by qPCR with Gapdh as housekeeping gene as described in Example 1 (Table 2: SEQ ID NO 5 and 6, and 1 5 and 2, respectively).
# [5] = tested on: Per2 promoter; assay: Luciferase reporter assay in Per2::Luc primary mouse fibroblasts after DEX synchronisation; type: cell-based; conditions: 1 μM DEX single pulse
# Experimental: The generation of knock-in mice expressing firefly luciferase under the control of Per2 promoter (Per2::Luc) has been described previously (Yoo et al. 2004).
# as §1, with “samples (about 0.25” for “samples (˜0.25”, “and Dex-exposed” for “and DEX-exposed”, “The number of photons emitted by each culture dish was counted over 1 minute every 10 min (time resolution: 6 data points/h). The time series” for “The cells”, “were further analyzed by means” for “were then collected between 6 and 36 h after synchronisation. The relative expression”, “of cosinor analysis” for “of Bmal1 was assessed by qPCR with Gapdh as housekeeping gene”, “Example 4.” for “Example 1 (Table 2: SEQ ID NO 5 and 6, and 1 5 and 2, respectively).”
# [6] = tested on: BMAL1, PER1 and PER2; assay: Clock gene mRNA expression in primary human fibroblasts after DEX synchronisation (qPCR); type: cell-based; conditions: 1 μM DEX; fibroblasts from healthy subjects; 6-36 h after synchronisation
# Experimental: A skin biopsy (about 5×2 mm) was collected from the internal aspect of the arm under sterile conditions after local anesthesia using EMLA patches (AstraZeneca, Sodertalje, Sweden). The wound was then covered with a sterile patch, and a small scar is formed typically within […]. The tissue sample was quickly transferred to ice-cold HBSS (Life Technologies Europe BV, Stockholm, Sweden) and minced with a sterile razor blade into Collagenase (Type XI-S) (Sigma-Aldrich, Sweden) (30 min at 37° C.). After digestion, 3 ml of DMEM Medium (Life Technologies) supplemented with 10 mM Hepes buffer, sodium pyruvate, non-essential amino acid mixture, glutamax, 20% Fetal Bovine Serum, and 1% Penicillin/Streptomycin (all supplements were from Life Technologies) was added to a 6 cm plate and the samples were incubated at 37° C. until the fibroblasts reached confluence (typically 3-4 weeks). The confluent fibroblast cultures were passaged (0.05% Trypsin-EDTA; Invitrogen) then plated in 12 multi-well plates at a density of at least 50 k/cm^2 in the same medium as used above. […] The cells were collected between 6 and 36 h after synchronisation. The relative mRNA expression of BMAL1, PER1 and PER2 (Table 2: SEQ ID NO 19 and 20) was assessed by qPCR with HP RT (Table 2: SEQ ID NO 13 and 14) as housekeeping gene. The qPCR procedure is described in Example 1.
# [7] = tested on: C57Bl/6 mice; assay: Homecage spontaneous activity (cosinor, periodogram, detrended fluctuation analysis)
# Experimental: The spontaneous activity of mice aged 1, 3, 5, and 12 mo (N=7-8/group) was recorded using the TraffiCage™ system (NewBehavior, Zurich, Switzerland). Briefly, the system consists of an array of radio frequency (RF) antennas placed under the cage with group-housed, freely moving mice. The antennas read the RFID tags and provide an approximate location of each animal with a time resolution of 20 ms. The time interval during which an animal is detected constantly by the same antenna is defined as a “visit.” When an animal changes location enough to be detected by another antenna, a new visit is recorded. Each visit is described by the start time and duration. For long recordings, the number of visits is virtually equal to the number of transitions, and can be used as activity count. The time series of visits are exported as ASCII files and analysed using custom routines developed in Matlab™ R2013b (The MathWorks™, Natick, Md., USA).
# The mice were housed in a climate-controlled, isolated room for a period of 6 to 7 weeks, with minimal interactions with human experimenters (except for changing the cage and to replenish food and water, which occurred at random times throughout the experiment). The synchronisation of activity monitoring with the LD cycle was ensured by using a remote control device (TellStick™, Telldus Technologies AB, Lund, Sweden) operated by the computer running TraffiCage™ control software. To minimize the effects of novelty and possible interference from circadian rhythm entrainment, the baseline measurements were derived based on 3 LD cycles after an acclimation period of at least 3 LD cycles.
# The analysis of circadian rhythmicity consisted of rhythmometry by means of cosinor analysis. […] We next analysed spontaneous activity by detrended fluctuation analysis (DFA). The method is based on linear regression analysis of the residual variance of the time series against the time scale used for detrending on double-logarithmic plots. The slope of a linear regression in double-logarithmic plot translates into a scaling exponent, and describes the long-term autocorrelation patterns embedded in the time series.
# [8] = tested on: mice; assay: MeHg model of developmental neurotoxicity, depression-like behavior; type: in vivo, mouse
# [9] = tested on: hippocampal dentate gyrus; conditions: chronic FLX; for effect of FLX treatment on neurogenesis: 12 mo
structure (smiles),measurement,setting,value
"C[C@@H]1C[C@H]2[C@@H]3CCC4=CC(=O)C=C[C@]4(C)[C@@]3(F)[C@@H](O)C[C@]2(C)[C@@]1(O)C(=O)CO [DEX, dexamethasone]",immobility time in FST vs controls,"[1]; prenatal DEX 0.05 mg/kg/day s.c. from GD14 until delivery, male offspring at 12 mo",increased
same,depression-like phenotype in tail suspension test,[2],reconfirmed
same,levels of corticosterone metabolites in the feces vs controls,[3],lower levels
same,circadian fluctuations in GC secretion,[3]; ZT1-2 vs ZT12-14,did not show significant circadian fluctuations
same,oscillations in Bmal1 expression vs control mice,[4],attenuated oscillations
same,time over which oscillations can be detected after initial DEX synchronisation,[5],≤ 10 days
same,period of oscillations in clock gene mRNA expression after DEX synchronisation,[6],about 24 h
same,scaling coefficient of spontaneous activity (detrended fluctuation analysis),"[7]; one DEX-exposed mouse (FIG. 6D), control mouse 0.82",0.88
same,"amplitude of circadian rhythm (cosinor), baseline vs forced synchronisation",[7]; prenatal DEX exposure,no significant difference
same,circadian period of spontaneous activity,"[7]; prenatal DEX exposure, 12 months old, constant steady entrainment",shorter
same,amplitude of circadian rhythm (cosinor) at baseline vs controls,"[7]; prenatal DEX exposure, LD cycle baseline",larger
same,"scaling exponent, free-running vs circadian entrainment conditions","[7]; prenatal DEX exposure, all ages investigated",significant fluctuations
same,"acrophase, baseline vs forced synchronisation","[7]; prenatal DEX exposure, mice aged 3 mo and older",did not vary
"CNCCC(Oc1ccc(C(F)(F)F)cc1)c1ccccc1 (stereo not drawn) [FLX, fluoxetine]",reversal of depression-like behavior by antidepressant treatment,"[1]; DEX model, middle-aged mice (12 months)",not reversed
same,immobility time in FST after FLX treatment,[1]; DEX-exposed mice,not altered
same,immobility time in FST after FLX treatment,[1]; control mice,decreases
same,reversal of depression-like behavior by antidepressant treatment,[8]; young adults (2-3 months),reversed
same,effect of FLX treatment on neurogenesis,[9]; DEX-exposed mice,did not have any significant effect; also recorded: has no effect
same,effect of FLX treatment on neurogenesis,[9]; controls,reduces
same,number of DCX+ cells after FLX,[9]; middle-aged controls,decreased
"[CH3][Hg][Cl] [MeHg, methylmercury]",depression-like behavior after developmental exposure,[8],detectable in young adults
